Consider three molecules from patent US20210134398A1, “Combinatorial Chemistry Computational System and Enhanced Selection Method” (Southern Methodist University, priority 2019, published 2021).

One data set has as its system DU145TXR. Nature of the data set: Cell viability, toxicity of the compounds themselves. The data set is classed as cell-based. The note with it: absence of chemotherapeutic or very low paclitaxel. The protocol: It should be noted that compounds 541 and 551 were not assessed in these latter experiments.
MTT cell viability assay. Cells were trypsinized from monolayers and seeded with 3000 cells in 150 μL of complete medium in a 96 well plate. After 24 hours, cells were treated for 48 hours with paclitaxel (Acros Organics, NJ) and/or P-gp inhibitory compounds dissolved in DMSO, or DMSO controls. All additions were diluted into complete medium. After 48 hours of treatment, MTT assays were performed as described^41 using 5 mg/mL of MTT (Acros Organics, NJ) solution prepared in PBS (137 mM NaCl, 2.7 mM KCl, 10 mM Na2HPO4, 1.8 mM KH2PO4, pH 7.4). After 4 hours of incubation with MTT, the media was removed and the formazan crystals were dissolved in 100 μL of DMSO. The absorbance at 570 nm was then measured using a BioTek Cytation 5 imaging multi-mode reader (Bio-Tek, Winooski, Vt.). Percent viability was calculated using DMSO treated cells as representative for 100% viability, according to Equation 1. Background absorbance was determined using MTT and complete medium without cells and subtracted from all the test values. Equation 1: […]

In data set [1] the target is T1, cysteineless mouse P-glycoprotein (Mus musculus, UniProt P21447, C1070A/C1121A/C1223A/C133A/C427A/C638A/C669A/C713A/C952A).
T1 construct: made in house; host or cells: Pichia pastoris
T1 sequence (P21447 whole entry C133A/C427A/C638A/C669A/C713A/C952A/C1070A/C1121A/C1223A): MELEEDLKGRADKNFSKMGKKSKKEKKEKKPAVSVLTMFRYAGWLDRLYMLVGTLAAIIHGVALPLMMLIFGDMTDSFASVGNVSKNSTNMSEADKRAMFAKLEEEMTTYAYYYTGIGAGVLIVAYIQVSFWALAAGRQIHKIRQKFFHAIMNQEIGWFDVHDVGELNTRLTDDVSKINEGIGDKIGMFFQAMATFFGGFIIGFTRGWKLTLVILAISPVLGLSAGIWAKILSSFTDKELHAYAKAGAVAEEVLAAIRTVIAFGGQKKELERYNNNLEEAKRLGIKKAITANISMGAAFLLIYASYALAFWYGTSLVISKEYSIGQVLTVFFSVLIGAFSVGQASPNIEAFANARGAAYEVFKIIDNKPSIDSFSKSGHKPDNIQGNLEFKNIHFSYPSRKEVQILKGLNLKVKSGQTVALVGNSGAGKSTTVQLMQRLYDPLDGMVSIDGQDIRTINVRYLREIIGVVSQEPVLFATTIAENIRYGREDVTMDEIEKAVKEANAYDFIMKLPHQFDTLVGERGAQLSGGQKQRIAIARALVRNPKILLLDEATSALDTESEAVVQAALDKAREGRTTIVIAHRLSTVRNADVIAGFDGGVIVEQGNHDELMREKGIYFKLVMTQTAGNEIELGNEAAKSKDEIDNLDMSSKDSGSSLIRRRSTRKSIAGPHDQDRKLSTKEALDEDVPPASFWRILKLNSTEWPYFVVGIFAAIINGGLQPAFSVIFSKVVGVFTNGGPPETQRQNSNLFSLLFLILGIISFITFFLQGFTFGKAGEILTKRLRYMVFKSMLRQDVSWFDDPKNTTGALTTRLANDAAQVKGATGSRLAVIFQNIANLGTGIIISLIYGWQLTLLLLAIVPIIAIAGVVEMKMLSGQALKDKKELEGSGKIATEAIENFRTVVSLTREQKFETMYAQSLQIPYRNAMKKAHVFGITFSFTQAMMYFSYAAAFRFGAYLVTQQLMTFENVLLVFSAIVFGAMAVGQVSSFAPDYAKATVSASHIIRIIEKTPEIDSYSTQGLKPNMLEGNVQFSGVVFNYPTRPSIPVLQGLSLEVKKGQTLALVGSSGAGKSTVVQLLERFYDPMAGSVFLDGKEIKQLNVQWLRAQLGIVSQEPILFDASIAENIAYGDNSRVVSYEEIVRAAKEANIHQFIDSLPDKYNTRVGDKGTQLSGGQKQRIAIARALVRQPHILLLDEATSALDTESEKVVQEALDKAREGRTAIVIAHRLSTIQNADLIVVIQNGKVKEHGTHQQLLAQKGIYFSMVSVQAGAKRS
The note with it: in the presence of 29, from Brewer et al. (2014), cited from earlier work.

Each structure is given as a SMILES string. Read-outs that look alike come from different tables or passages of the source.

As to `Cc1cc(C)c(-c2cc(NC(=O)CSCC(=O)NC(c3ccccc3)c3ccccc3)n(-c3ccccc3)n2)cc1C` [29-280, N-(diphenylmethyl)-2-[({[1-phenyl-3-(2,4,5-trimethylphenyl)-1H-pyrazol-5-yl]carbamoyl)methyl}sulfanyl]acetamide], the “Toxicity of the compound to DU145TXR cells” value with DU145TXR was “seemed to exhibit some toxicity”.
For `Cc1cc(C)c(-c2cc(NC(=O)CSc3nnc4c(n3)[nH]c3ccccc34)n(-c3ccccc3)n2)cc1C` [29-541, 2-((5H-[1,2,4]triazino[5,6-b]indol-3-yl)thio)-N-(1-phenyl-3-(2,4,5-trimethylphenyl)-1H-pyrazol-5-yl)acetamide], in the data set with DU145TXR, the “Toxicity of the compound to DU145TXR cells” value is recorded as “showed some toxicity”.
As to `Cc1cc(C)c(-c2cc(NC(=O)CSc3nnc(C4CC4)[nH]3)n(-c3ccccc3)n2)cc1C` [compound 29, reference compound], the “Effect on SL-ANP binding” value in data set [1] is “did not affect the binding”; in data set [1] (listed as SMU29), “no”.
